Activity calls are given as the source filed them. The rule behind the calls is not given here.
How the values were obtained:
[1] = system: Rattus norvegicus; assay: Antithrombotic activity in rat model of inferior vena cava ligation-induced venous thrombosis assessed as reduction in venous thrombus weight at 4.87 umol/kg, po; assay type: functional, organism-based; details: dose 4.87 µmol/kg
[2] = Toxicity in inferior vena cava ligation-induced venous thrombosis rat model assessed as bleeding time at 4.87 umol/kg; details: in vivo, dose 4.87 µmol/kg
[3] = Toxicity in inferior vena cava ligation-induced venous thrombosis rat model assessed as clotting time at 4.87 umol/kg; details: in vivo, dose 4.87 µmol/kg
[4] = Toxicity in inferior vena cava ligation-induced venous thrombosis rat model assessed as international normalized ratio measure of prothrombin time and exogenous coagulation pathway at 4.87 umol/kg; details: in vivo, dose 1 µmol/kg
[5] = Drug metabolism in rat plasma assessed as formation of 6s/12as-heptachpyridone incubated for 1 hr by HPLC-FT-ICR-MS analysis; assay type: ADME, cell-free
[6] = system: Rattus norvegicus; assay: Antithrombotic activity in rat model of thread-induced arterial thrombosis assessed as reduction artery thrombus at 167 umol/kg, po; assay type: functional, organism-based; details: dose 167.0 µmol/kg
[7] = Drug metabolism in rat plasma assessed as formation of 6s/12as-bisdimethoxyethylheptachpyridone incubated for 1 hr by HPLC-FT-ICR-MS analysis; assay type: ADME, cell-free
[8] = Toxicity in inferior vena cava ligation-induced venous thrombosis rat model assessed as bleeding time at 1 umol/kg; details: in vivo, dose 1 µmol/kg
[9] = system: Rattus norvegicus; assay: Antithrombotic activity in rat model of thread-induced arterial thrombosis assessed as reduction artery thrombus at 1 umol/kg, po; assay type: functional, organism-based; details: dose 1.0 µmol/kg
[10] = Toxicity in inferior vena cava ligation-induced venous thrombosis rat model assessed as clotting time at 1 umol/kg; details: in vivo, dose 1 µmol/kg
[11] = system: Rattus norvegicus; assay: Antithrombotic activity in rat model of inferior vena cava ligation-induced venous thrombosis assessed as reduction in venous thrombus weight at 1 umol/kg, po; assay type: functional, organism-based; details: dose 1.0 µmol/kg
[12] = Toxicity in inferior vena cava ligation-induced venous thrombosis rat model assessed as international normalized ratio measure of prothrombin time and exogenous coagulation pathway at 1 umol/kg; details: in vivo, dose 1 µmol/kg

## CC(=O)CC(c1ccccc1)c1c(O)c2ccccc2oc1=O (configuration not stated) [WARFARIN]
[1]
  Activity: Active
[2]
  Activity: Toxic
[3]
  Activity: Toxic
[4]
  Activity: Toxic

## COC(C[C@H]1c2[nH]c3ccccc3c2C[C@H]2C(=O)N3[C@@H](Cc4c([nH]c5ccccc45)[C@@H]3CC(OC)OC)C(=O)N21)OC
[5]
  Drug metabolism: Metabolite_Detected

## CC(=O)Oc1ccccc1C(=O)O
[6]
  Activity: Active

## COC(C[C@@H]1N[C@H](C(=O)O)Cc2c1[nH]c1ccccc21)OC
[7]
  Drug metabolism: Metabolite_Detected

## O=CC[C@H]1c2[nH]c3ccccc3c2C[C@H]2C(=O)N3[C@@H](Cc4c([nH]c5ccccc45)[C@@H]3CC=O)C(=O)N21
[8]
  Activity: Non-Toxic
[9]
  Activity: Active
[10]
  Activity: Non-Toxic
[11]
  Activity: Active
[12]
  Activity: Non-Toxic
